Results as given in patent US20020137733A1, “Macrocyclic anti-viral compounds” (priority 2000, published 2002).
In brackets after ≈: the same amount, converted by molar mass. Read-outs that look alike come from different tables or passages of the source.

What was measured:
VZV YS strain = experiment: Anti-VZV plaque assay, YS strain (Tk+); format: cell-based, varicella zoster virus; settings: read-out: ANTI-VZV ACTIVITY EC50 Plaque assay VZV Tk+ YS strain
Protocol: (§1) Human embryonic lung fibroblast (HEL) cells were grown in 96-well plates at the confluent stage and then were infected with reference strains VZV expressing viral thymidine kinase (YS and Oka) or lacking the viral thymidine kinase (07-1 and YS-R) at 20 plaque-forming units (PFU) for plaque assay. After a 2 hours incubation, residual virus was removed and the infected cells were further incubated with Eagle's MEM culture medium supplemented with 2% inactivated FCS (fetal calf serum), 1% L-glutamine and 0.3% sodium bicarbonate containing dilution of the test compounds (in duplicate) After 5 days incubation at 37 C. in 5% CO2 atmosphere, cells were fixed with ethanol and stained with 2.5% Giemsa solution. Virus plaque formation was monitored microscopically. […] IC50 values were estimated from graphic plots of the number of plaques (percentage of control) as a function of the concentration of the test compounds.

HSV-1 KOS = experiment: Anti-HSV CPE assay, HSV-1 KOS; format: cell-based, herpes simplex virus type 1
Protocol: (§2) Human embryonic lung fibroblast (HEL) cells and Vero cells were propagated in minimal essential medium (MEM) supplemented with 10% fetal calf serum, L-glutamine, and bicarbonate. A CPE assay was used, confluent cultures of HEL or Vero cells grown in 96-well microtiter plates were inoculated with 100 times the 50% cell culture infective dose of the different HSV strains (HSV-1 KOS; HSV-1 Tk−, which is deficient for thymidine kinase; and HSV-2 G). Compounds were added after a 2 hours virus adsorption period. After 2 to 3 days incubation at 37 C. in 5% CO2 atmosphere, cells were fixed with ethanol and stained with 2.5% Giemsa solution. Virus-induced cytopathic effect (CPE) was then recorded microscopically. […] IC50 values were estimated from graphic plots of the number of plaques (percentage of control) or percentage of cytopathocity as a function of the concentration of the test compounds. Control compounds ganciclovir (GCV) and cidofovir ([(S)-1-(3-hydroxy-2-phosphonylmethoxypropyl)cytosine], HPMPC) were run in parallel.

HSV-1 Tk− = experiment: Anti-HSV CPE assay, HSV-1 Tk- (thymidine kinase deficient); format: cell-based, herpes simplex virus type 1
Protocol: as §2

HSV-2 G = experiment: Anti-HSV CPE assay, HSV-2 G; format: cell-based, herpes simplex virus type 2
Protocol: as §2

Vero cells = experiment: Cytotoxicity, alteration of cell morphology (MTC), Vero cells; format: cell-based; settings: Table 1
Description: (§3) Method 10. Cytotoxicity Measurements Based on Alteration of Cell Morphology
(§4) Minimum toxic concentration which is expressed as MTC, is the minimum concentration of compound required to cause microscopically detectable alteration in normal cell morphology.
(§5) MTC: Minimal toxic concentration or minimal concentration required to alter normal cell morphology (Visual examination)

VZV YS/R strain = experiment: microbe, parasite or virus in culture; format: cell-based, varicella zoster virus; settings: Human alphaherpesvirus 3, HEL, read-out: ANTI-VZV ACTIVITY EC50 Plaque assay VZV Tk− YS/R strain
Protocol: as §1

VZV OKA strain = experiment: microbe, parasite or virus in culture; format: cell-based, varicella zoster virus; settings: Human alphaherpesvirus 3, HEL, read-out: ANTI-VZV ACTIVITY EC50 Plaque assay VZV Tk+ OKA strain
Protocol: as §1

VZV 07/1 strain = experiment: microbe, parasite or virus in culture; format: cell-based, varicella zoster virus; settings: Human alphaherpesvirus 3, HEL, read-out: ANTI-VZV ACTIVITY EC50 Plaque assay VZV Tk− 07/1 strain
Protocol: as §1

HEL cells = experiment: Cytotoxicity, alteration of cell morphology (MTC), HEL cells; settings: for CYTOTOXICITY MTC HEL: Table 1 (anti-HSV study)
Description: as §3, §4, §5

[1] = Cytotoxicity, inhibition of cell growth (CC50), HEL cells; format: cell-based; settings: human, Coulter counter
Protocol: (§6) Method 9. Cytotoxicity Measurements Based on the Inhibition of Cell Growth
(§7) Cells were seeded at a rate of 5×10^3 cells/well in 96-well plates and allowed to proliferate 24 hours. Different concentrations of the test compounds were then added (in duplicates), and after 3 days of incubation at 37 C. in 5% CO2 atmosphere, the cell number was determined with a coulter counter.

EBV = experiment: Anti-EBV assay, EBV-specific DNA/DNA hybridization in P3HR-1 cells; format: cell-based, Epstein-Barr virus; settings: read-out: ANTI-EBV ACTIVITY EC50 DNA hybridiation assay
Protocol: To determine the effects of the compounds on EBV replication, exponentially growing P3HR-1 cells were treated for 14 days with various concentrations of the compounds. The cells were then harvested, and the genome copy numbers were determined using EBV-specific DNA/DNA hybridization technique. […] Control compound cidofovir ([(S)-1-(3-hydroxy-2-phosphonylmethoxypropyl)cytosine], HPMPC) was run in parallel.

[2] = Cytotoxicity, inhibition of cell growth (CC50), P3HR cells; format: cell-based; settings: human, Coulter counter
Protocol: as §6, §7

in vitro = format: cell-based; settings: human
Description: Method 11. Cytotoxicity Measurements Based on Reduction of Total Cellular DNA Content Expressed as CC50*

HCMV Davis [3] = experiment: Anti-HCMV plaque assay; format: cell-based, cytomegalovirus; settings: for EC50: Human betaherpesvirus 5, HEL
Protocol: (§8) Method 4. Anti-HCMV Assay
(§9) Human embryonic lung fibroblast cells (HEL) were grown in 96-well plates at the confluent stage and then were infected with reference strains of HCMV Davis at 8, 20, 38 plaque-forming units (PFU)/well for plaque assay or at 100 PFU/well for cytopathic effect (CPE) assay. After a 2 hours incubation, residual virus was removed and the infected cells were further incubated with Eagle's MEM culture medium supplemented with 2% inactivated FCS (fetal calf serum), 1% L-glutamine and 0.3% sodium bicarbonate containing dilution of the test compounds (in duplicate). After 7 days incubation at 37 C. in 5% CO2 atmosphere, cells were fixed with ethanol and stained with 2.5% Giemsa solution. Virus plaque formation or viral cytopathic effect were monitored microscopically. […] IC50 values were estimated from graphic plots of the number of plaques (percentage of control) or percentage of cytopathocity as a function of the concentration of the test compounds. Control compounds ganciclovir (GCV) and cidofovir ([(S)-1-(3-hydroxy-2-phosphonylmethoxypropyl)cytosine], HPMPC) were run in parallel.

HCMV Davis [4] = experiment: Anti-HCMV CPE assay; format: cell-based, cytomegalovirus; settings: HEL cells, 100 PFU/well; for EC50: Human betaherpesvirus 5, HEL, read-out: ANTI-HCMV ACTIVITY EC50 HCMV-Davis CPE 100/well (96 well)
Protocol: as §8, §9

[5] = Human alphaherpesvirus 1, Vero cells, read-out: ANTI-HSV ACTIVITY EC50 CPE assay HSV-1-KOS Vero
[6] = Human alphaherpesvirus 1, Vero, read-out: ANTI-HSV ACTIVITY EC50 CPE assay HSV-1Tk- Vero, Vero cells
[7] = Human alphaherpesvirus 2, Vero, Vero cells, read-out: ANTI-HSV ACTIVITY EC50 CPE assay HSV-2-G Vero
[8] = Human alphaherpesvirus 1, HEL, read-out: ANTI-HSV ACTIVITY EC50 CPE assay HSV-1Tk- HEL, HEL cells
[9] = Human alphaherpesvirus 1, HEL cells, read-out: ANTI-HSV ACTIVITY EC50 CPE assay HSV-1-KOS HEL
[10] = HEL cells, 8 PFU/well, read-out: ANTI-HCMV ACTIVITY EC50 HCMV-Davis Plaque assay 8/well
[11] = HEL cells, 38 PFU/well, read-out: ANTI-HCMV ACTIVITY EC50 HCMV-Davis Plaque assay 38/well

Nc1nc2c(ncn2COCCO)c(=O)[nH]1 [ACV, acyclovir]
EC50 (VZV YS strain; Human alphaherpesvirus 3, HEL cells, 20 PFU): 0.69 µg/mL (≈ 3.06 µM)
EC50 (HSV-1 KOS; [5]): 2.4 µg/mL (≈ 10.7 µM)
EC50 (HSV-1 Tk−; [6]): 33 µg/mL (≈ 147 µM)
EC50 (HSV-2 G; [7]): 1.3 µg/mL (≈ 5.77 µM)
CYTOTOXICITY MTC Vero (Vero cells): >10 µg/mL

O=c1[nH]c(=O)n([C@H]2C[C@H](O)[C@@H](CO)O2)cc1/C=C/Br [BVDU, (E)-5-(2-bromovinyl)-2′-deoxyuridine]
EC50 (VZV YS strain; Human alphaherpesvirus 3, HEL): 0.0013 µg/mL (≈ 0.0039 µM)
EC50 (VZV YS/R strain): 39 µg/mL (≈ 117 µM)
EC50 (VZV OKA strain): 0.0013 µg/mL (≈ 0.0039 µM)
EC50 (VZV 07/1 strain): 4 µg/mL (≈ 12 µM)
CYTOTOXICITY HEL cells MTC (HEL cells; Table 3 (anti-VZV study)): >50 µg/mL

O=C1NCc2ccccc2OCC/C=C/c2cncc3ccc1nc23 [Compound #1]
EC50 (VZV YS strain; Human alphaherpesvirus 3, HEL): 0.05 µg/mL (≈ 0.151 µM)
CC50 at 3 days [1]: 0.1 µg/mL (≈ 0.302 µM)
EC50 (HSV-1 KOS; Human alphaherpesvirus 1, HEL, read-out: ANTI-HSV ACTIVITY EC50 CPE assay HSV-1-KOS HEL): 0.098 µg/mL (≈ 0.296 µM)
EC50 (HSV-1 KOS; Human alphaherpesvirus 1, Vero, read-out: ANTI-HSV ACTIVITY EC50 CPE assay HSV-1-KOS Vero): 0.52 µg/mL (≈ 1.57 µM)
EC50 (EBV; human gammaherpesvirus 4, P3HR-1, 336 h): < 0.2 µg/mL
CC50 at 3 days [2]: 0.7 µg/mL (≈ 2.11 µM)
EC50 (HSV-1 Tk−; [8]): 0.062 µg/mL (≈ 0.187 µM)
EC50 (HSV-1 Tk−; [6]): 1.1 µg/mL (≈ 3.32 µM)
CC50 (in vitro): 2.6 µg/mL (≈ 7.85 µM)
EC50 (VZV YS/R strain): 0.05 µg/mL (≈ 0.151 µM)
EC50 (VZV OKA strain): 0.06 µg/mL (≈ 0.181 µM)
EC50 (VZV 07/1 strain): 0.06 µg/mL (≈ 0.181 µM)
EC50 (HSV-2 G; Human alphaherpesvirus 2, HEL, read-out: ANTI-HSV ACTIVITY EC50 CPE assay HSV-2-G HEL): 0.138 µg/mL (≈ 0.416 µM)
EC50 (HSV-2 G; Human alphaherpesvirus 2, Vero, read-out: ANTI-HSV ACTIVITY EC50 CPE assay HSV-2-G Vero): 0.009 µg/mL (≈ 0.0272 µM)
EC50 (HCMV Davis [3]; read-out: ANTI-HCMV ACTIVITY EC50 HCMV-Davis Plaque assay 8/well): < 0.0015 µg/mL
EC50 (HCMV Davis [3]; read-out: ANTI-HCMV ACTIVITY EC50 HCMV-Davis Plaque assay 20/well): < 0.0015 µg/mL
EC50 (HCMV Davis [3]; read-out: ANTI-HCMV ACTIVITY EC50 HCMV-Davis Plaque assay 38/well): 0.003 µg/mL (≈ 0.00905 µM)
CYTOTOXICITY MTC Vero (Vero cells): 25 µg/mL
CYTOTOXICITY MTC HEL (HEL cells): 6 µg/mL
CYTOTOXICITY HEL cells MTC (HEL cells; Table 3 (anti-VZV study)): >2 µg/mL

Nc1nc(O)c2ncn(COC(CO)CO)c2n1 [GCV, 9-[(1,3-dihyroxy-2-propoxy)methyl]guanine]
CC50 at 3 days [1]: 23 µg/mL (≈ 90.1 µM)
EC50 (HSV-1 KOS; [9]): 0.01 µg/mL (≈ 0.0392 µM)
EC50 (HSV-1 KOS; [5]): 2.6 µg/mL (≈ 10.2 µM)
ANTI-HSV ACTIVITY EC50 CPE assay HSV-1Tk- HEL (HSV-1 Tk−; HEL cells): 17.4 µg/mL
EC50 (HSV-1 Tk−; [8]): 12.5 µg/mL (≈ 49 µM)
EC50 (HSV-1 Tk−; [6]): > 100 µg/mL
EC50 (HSV-2 G; [7]): 1.2 µg/mL (≈ 4.7 µM)
ANTI-HCMV ACTIVITY EC50 HCMV-Davis Plaque assay 8/well (HCMV Davis [3]; HEL cells, 8 PFU/well): 0.86 µg/mL
EC50 (HCMV Davis [3]; [10]): 0.94 µg/mL (≈ 3.68 µM)
EC50 (HCMV Davis [3]; [11]): > 100 µg/mL
ANTI-HCMV ACTIVITY EC50 HCMV-Davis CPE 100/well (96 well) (HCMV Davis [4]): 0.78 µg/mL
EC50 (HCMV Davis [4]): 0.98 µg/mL (≈ 3.84 µM)
CYTOTOXICITY MTC Vero (Vero cells): >100 µg/mL
CYTOTOXICITY MTC HEL (HEL cells): >100 µg/mL
CYTOTOXICITY HEL cells MTC (HEL cells; Table 4 (anti-HCMV study)): >100 ug/m/

Nc1ccn(C[C@@H](CO)OCP(=O)(O)O)c(=O)n1 [HPMPC, (S)-1-(3-hydroxy-2-phosphonylmethoxypropyl)cytosine]
CC50 at 3 days [1]: 11 µg/mL (≈ 39.4 µM)
EC50 (HSV-1 KOS; [9]): 0.098 µg/mL (≈ 0.351 µM)
EC50 (HSV-1 KOS; [5]): 6.7 µg/mL (≈ 24 µM)
EC50 (EBV; human gammaherpesvirus 4, 336 h, P3HR-1 cells, treated 14 days): < 25 µg/mL
CC50 at 3 days [2]: 30 µg/mL (≈ 107 µM)
EC50 (HSV-1 Tk−; [8]): 0.012 µg/mL (≈ 0.043 µM)
EC50 (HSV-1 Tk−; [6]): 2.4 µg/mL (≈ 8.6 µM)
CC50 (in vitro): > 25 µg/mL
EC50 (HSV-2 G; Human alphaherpesvirus 2, HEL, HEL cells, read-out: ANTI-HSV ACTIVITY EC50 CPE assay HSV-2-G HEL): 0.01 µg/mL (≈ 0.0358 µM)
EC50 (HSV-2 G; [7]): 1.3 µg/mL (≈ 4.66 µM)
EC50 (HCMV Davis [3]; [10]): 0.15 µg/mL (≈ 0.537 µM)
EC50 (HCMV Davis [3]; HEL cells, 20 PFU/well, read-out: ANTI-HCMV ACTIVITY EC50 HCMV-Davis Plaque assay 20/well): 0.14 µg/mL (≈ 0.501 µM)
EC50 (HCMV Davis [3]; [11]): 1.9 µg/mL (≈ 6.81 µM)
EC50 (HCMV Davis [4]): 0.1 µg/mL (≈ 0.358 µM)
CYTOTOXICITY MTC Vero (Vero cells): >100 µg/mL
CYTOTOXICITY MTC HEL (HEL cells): >100 µg/mL
CYTOTOXICITY HEL cells MTC (HEL cells; Table 4 (anti-HCMV study)): >100 ug/m/
